From ChEMBL document CHEMBL4725460, “Novel Amide-Substituted Heterocyclic Compounds for Treating Inflammatory and Autoimmune Diseases” (ACS Med Chem Lett, 2020)

Assay: Inhibition of IFNalpha in human whole blood assessed as reduction in IFNalpha-induced STAT phosphorylation by fluorescence assay
Format: tissue-based

| SMILES | IC50 [µM] |
| --- | --- |
| COC(=O)Nc1cc(Nc2cccc(-c3ncn(C)n3)c2OC)c(C(N)=O)nn1 | 0.07 |
| [2H]C([2H])([2H])NC(=O)c1nnc(NC(=O)NCC#C)cc1Nc1cccc(-c2ncn(C)n2)c1OC | 0.06 |
| [2H]C([2H])([2H])NC(=O)c1nnc(NC(=O)NCC=C)cc1Nc1cccc(-c2ncn(C)n2)c1OC | 0.06 |
| [2H]C([2H])([2H])NC(=O)c1nnc(NC(=O)NCC)cc1Nc1cccc(-c2ncn(C)n2)c1OC | 0.02 |
| COC(=O)Nc1cc(Nc2cccc(-c3noc(CN4CCCCS4(=O)=O)n3)c2OC)c(C(N)=O)nn1 | 0.03 |
| [2H]C([2H])([2H])NC(=O)c1nnc(NC(=O)OC)cc1Nc1cccc(-c2noc(CN3CCCCS3(=O)=O)n2)c1OC | 0.06 |
